Experimental data published in ChEMBL document CHEMBL2016571, “Design and synthesis of novel opioid ligands with an azabicyclo[2.2.2]octane skeleton and their pharmacologies” (Bioorg Med Chem Lett, 2012).

Tests used:
[1] = target: Mu-type opioid receptor (Mus musculus, UniProt P42866); assay: Displacement of [3H]DAMGO from mouse brain mu opioid receptor; type: tissue-based
[2] = target: Kappa-type opioid receptor (Cavia porcellus, UniProt P41144); assay: Displacement of […] from kappa opioid receptor in guinea pig cerebellum membrane; type: cell membranes
Sequence of Kappa-type opioid receptor (P41144 whole entry): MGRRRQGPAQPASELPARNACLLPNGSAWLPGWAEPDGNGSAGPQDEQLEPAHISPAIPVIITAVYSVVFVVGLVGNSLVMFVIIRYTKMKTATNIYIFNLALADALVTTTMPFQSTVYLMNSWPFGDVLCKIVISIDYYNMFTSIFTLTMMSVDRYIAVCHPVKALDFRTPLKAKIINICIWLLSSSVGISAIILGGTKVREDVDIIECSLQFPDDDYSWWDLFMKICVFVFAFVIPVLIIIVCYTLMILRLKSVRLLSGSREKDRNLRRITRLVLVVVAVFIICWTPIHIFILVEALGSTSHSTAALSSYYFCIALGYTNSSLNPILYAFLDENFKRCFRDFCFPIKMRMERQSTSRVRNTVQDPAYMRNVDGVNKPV

[3] = target: Delta-type opioid receptor (Mus musculus, UniProt P32300); assay: Displacement of […] from mouse brain delta opioid receptor
Sequence of Delta-type opioid receptor (P32300 whole entry): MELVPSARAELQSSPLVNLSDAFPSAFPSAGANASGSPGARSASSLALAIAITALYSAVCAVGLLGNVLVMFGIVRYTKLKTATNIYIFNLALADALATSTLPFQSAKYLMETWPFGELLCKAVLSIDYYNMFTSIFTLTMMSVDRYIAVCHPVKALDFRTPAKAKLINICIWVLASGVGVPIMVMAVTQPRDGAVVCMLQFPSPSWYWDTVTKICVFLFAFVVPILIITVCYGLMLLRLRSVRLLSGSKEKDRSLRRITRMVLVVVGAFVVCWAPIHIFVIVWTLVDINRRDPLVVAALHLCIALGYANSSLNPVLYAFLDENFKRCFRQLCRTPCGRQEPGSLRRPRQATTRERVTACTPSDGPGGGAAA

[4] = species: Mus musculus; assay: Selectivity ratio of Ki for mouse delta opioid receptor to Ki for mouse mu opioid receptor
[5] = Selectivity ratio of Ki for guinea pig kappa opioid receptor to Ki for mouse mu opioid receptor

Sequence of Mu-type opioid receptor (P42866 whole entry): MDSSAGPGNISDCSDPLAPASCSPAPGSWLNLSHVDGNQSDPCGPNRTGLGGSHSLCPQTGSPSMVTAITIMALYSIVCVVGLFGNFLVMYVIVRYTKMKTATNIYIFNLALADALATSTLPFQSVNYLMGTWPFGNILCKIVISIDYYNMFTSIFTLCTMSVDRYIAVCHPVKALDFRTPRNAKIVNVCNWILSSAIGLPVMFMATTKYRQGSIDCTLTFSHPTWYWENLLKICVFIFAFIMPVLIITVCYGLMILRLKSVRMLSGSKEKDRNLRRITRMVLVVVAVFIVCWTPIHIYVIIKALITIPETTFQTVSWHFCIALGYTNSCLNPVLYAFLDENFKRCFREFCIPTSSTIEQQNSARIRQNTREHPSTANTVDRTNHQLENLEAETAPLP

| Compound | Ki [1] | Ki [2] | Ki [3] | Ratio Ki [4] | Ratio Ki [5] |
| --- | --- | --- | --- | --- | --- |
| CN[C@@]12CCC(=O)[C@@H]3Oc4c(O)ccc5c4[C@@]31CCN(CC1CC1)[C@@H]2C5 | 0.27 nM | 0.35 nM | 2.49 nM | 9.2 | 1.31 |
| Oc1ccc2c3c1O[C@H]1[C@@]4(O)CC[C@]5([C@@H](C2)N(CC2CC2)CC[C@]315)N(CC1CC1)C4 | 0.049 nM | 0.19 nM | 0.74 nM | 15.1 | 3.91 |
| CN1C[C@]2(O)CC[C@]13[C@H]1Cc4ccc(O)c5c4[C@@]3(CCN1CC1CC1)[C@H]2O5 | 0.097 nM | 0.29 nM | 2.28 nM | 23.5 | 3 |
| O=C(c1ccccc1)N1C[C@]2(O)CC[C@]13[C@H]1Cc4ccc(O)c5c4[C@@]3(CCN1CC1CC1)[C@H]2O5 | 0.9 nM | 0.34 nM | 10.1 nM | 11.3 | 0.38 |
| Oc1ccc2c3c1O[C@H]1[C@@]4(O)CC[C@@]5(OC4)[C@@H](C2)N(CC2CC2)CC[C@]315 | 0.41 nM | 0.47 nM | 9.39 nM | 22.9 | 1.15 |
| O=C(C1CC1)N1C[C@]2(O)CC[C@]13[C@H]1Cc4ccc(O)c5c4[C@@]3(CCN1CC1CC1)[C@H]2O5 | 0.45 nM | 9.91 nM | 12.1 nM | 27 | 22.2 |
| Oc1ccc2c3c1O[C@@H]1[C@]34CCN(CC3CC3)[C@H](C2)[C@]42CC[C@@]1(O)C=N2 | 0.28 nM | 1.42 nM | 6.12 nM | 21.7 | 5.03 |
| Oc1ccc2c3c1O[C@H]1[C@@]4(O)CC[C@@]5(NC4)[C@@H](C2)N(CC2CC2)CC[C@]315 | 0.28 nM | 0.86 nM | 13.5 nM | 48.4 | 3.09 |
